ChEMBL document CHEMBL1201862, “PubChem BioAssay data set” (2004)
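96-well plates; 48 h exposure; 5 concentrations. Endpoints by linear interpolation between flanking doses. Not reached: highest tested concentration assigned. The concentration for 50% growth inhibition is given as GI50.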 Activity calls are given as the source filed them. Cut-off read from the data, not from the text of the source: active = GI50 up to about 1.1 µM and inactive = higher.

Legend:
Assay in all cases: growth of human tumour cells (NCI), 48 h
A549 = system: A549
DU-145 = system: DU-145
EKVX = system: EKVX
HCC 2998 = system: HCC 2998
HOP-92 = system: HOP-92
Hs-578T = system: Hs-578T
M14 = system: M14
MDA-MB-231 = system: MDA-MB-231
MOLT-4 = system: MOLT-4
Malme-3M = system: Malme-3M
NCI-H226 = system: NCI-H226
OVCAR-3 = system: OVCAR-3
PC-3 = system: PC-3
SK-MEL-28 = system: SK-MEL-28
TK-10 = system: TK-10
UACC-257 = system: UACC-257
UO-31 = system: UO-31
HL-60 = system: HL-60
OVCAR-4 = system: OVCAR-4
A498 = system: A498

Structure (SMILES)	GI50 (A549)	GI50 (DU-145)	GI50 (EKVX)	GI50 (HCC 2998)	GI50 (HOP-92)	GI50 (Hs-578T)	GI50 (M14)	GI50 (MDA-MB-231)	GI50 (MOLT-4)	GI50 (Malme-3M)	GI50 (NCI-H226)	GI50 (OVCAR-3)	GI50 (PC-3)	GI50 (SK-MEL-28)	GI50 (TK-10)	GI50 (UACC-257)	GI50 (UO-31)	GI50 (HL-60)	GI50 (OVCAR-4)	GI50 (A498)
O=C(c1ccccc1)N1C(=S)N(c2ccc([N+](=O)[O-])cc2)C(=N/c2ccccc2)/C1=N\c1ccccc1	41.9 µM (inactive)	> 100 µM (inactive)	> 100 µM (inactive)	> 100 µM (inactive)	> 100 µM (inactive)	> 100 µM (inactive)	> 100 µM (inactive)	39.8 µM (inactive)	19.5 µM (inactive)	> 100 µM (inactive)	> 100 µM (inactive)	> 100 µM (inactive)	40.6 µM (inactive)	> 100 µM (inactive)	> 100 µM (inactive)	> 100 µM (inactive)	> 100 µM (inactive)			
Cc1ccc(/C=c2\c(=O)[nH]c3nc4ccccc4c(=O)n23)cc1	94.4 µM (inactive)	53 µM (inactive)		25.4 µM (inactive)	55.2 µM (inactive)	31 µM (inactive)	37.5 µM (inactive)	43.9 µM (inactive)	38.8 µM (inactive)	45.5 µM (inactive)		32.8 µM (inactive)	55.5 µM (inactive)	43.9 µM (inactive)	> 100 µM (inactive)	70 µM (inactive)	57.5 µM (inactive)	29.2 µM (inactive)	> 100 µM (inactive)	
CC1(C)C(O)C[C@]23CCC[C@](C)(C[C@@H](O)C12)C3 (stereo partly drawn)	38.2 µM (inactive)		> 100 µM (inactive)		> 100 µM (inactive)	> 100 µM (inactive)	> 100 µM (inactive)		> 100 µM (inactive)	> 100 µM (inactive)	> 100 µM (inactive)	> 100 µM (inactive)	> 100 µM (inactive)	> 100 µM (inactive)	> 100 µM (inactive)	> 100 µM (inactive)	> 100 µM (inactive)	> 100 µM (inactive)	> 100 µM (inactive)	
CC(=O)C1C(=O)C(=O)N(c2ccc([N+](=O)[O-])cc2Cl)C1=O (stereo not drawn)	> 100 µM (inactive)	> 100 µM (inactive)	> 100 µM (inactive)	> 100 µM (inactive)	56.6 µM (inactive)	> 100 µM (inactive)	> 100 µM (inactive)	> 100 µM (inactive)	45.6 µM (inactive)		> 100 µM (inactive)	94.2 µM (inactive)	82.2 µM (inactive)	> 100 µM (inactive)	> 100 µM (inactive)	> 100 µM (inactive)	56.1 µM (inactive)	93.1 µM (inactive)	> 100 µM (inactive)	
Cn1c(S)nnc1-c1csc(-c2ccc(Cl)cc2)n1	32.6 µM (inactive)		30.7 µM (inactive)	> 100 µM (inactive)	12 µM (inactive)	29.7 µM (inactive)	33.1 µM (inactive)	24 µM (inactive)	55.8 µM (inactive)	30.3 µM (inactive)	23.1 µM (inactive)	19.1 µM (inactive)	35.7 µM (inactive)	44.6 µM (inactive)	20.4 µM (inactive)	> 100 µM (inactive)	22.5 µM (inactive)		26.1 µM (inactive)	
O=[N+]([O-])c1nccn1CC1OC(n2ccnc2[N+](=O)[O-])C(O)C(O)C1O (stereo not drawn)	> 100 µM (inactive)		> 100 µM (inactive)	> 100 µM (inactive)	> 100 µM (inactive)	> 100 µM (inactive)	> 100 µM (inactive)		> 100 µM (inactive)	> 100 µM (inactive)	> 100 µM (inactive)		> 100 µM (inactive)	> 100 µM (inactive)	> 100 µM (inactive)	> 100 µM (inactive)	> 100 µM (inactive)	> 100 µM (inactive)		> 100 µM (inactive)
Fc1cccc(C2SCc3nc4cc5ccccc5cc4n32)c1 (stereo not drawn)	> 100 µM (inactive)	> 100 µM (inactive)	> 100 µM (inactive)	> 100 µM (inactive)	21 µM (inactive)	> 100 µM (inactive)	> 100 µM (inactive)	> 100 µM (inactive)	> 100 µM (inactive)	> 100 µM (inactive)	> 100 µM (inactive)	> 100 µM (inactive)	> 100 µM (inactive)	> 100 µM (inactive)	> 100 µM (inactive)	> 100 µM (inactive)	> 100 µM (inactive)		90.8 µM (inactive)	
COC(=O)c1csc(-c2nc(CCNC(=O)OC(C)(C)C)sc2Br)n1	> 100 µM (inactive)	> 100 µM (inactive)	> 100 µM (inactive)	> 100 µM (inactive)		> 100 µM (inactive)	> 100 µM (inactive)		> 100 µM (inactive)	> 100 µM (inactive)	> 100 µM (inactive)	> 100 µM (inactive)	55.7 µM (inactive)	> 100 µM (inactive)	> 100 µM (inactive)	> 100 µM (inactive)	> 100 µM (inactive)	> 100 µM (inactive)		> 100 µM (inactive)
COc1ccccc1C#C/C=C\C#Cc1ccccc1C#N	6.89 µM (inactive)	20 µM (inactive)	5.94 µM (inactive)	6.19 µM (inactive)	31.7 µM (inactive)	25.9 µM (inactive)	6.08 µM (inactive)		0.268 µM (active)	9.98 µM (inactive)		4.4 µM (inactive)	13.2 µM (inactive)	34.2 µM (inactive)	20.7 µM (inactive)	5.2 µM (inactive)	10.9 µM (inactive)	4.55 µM (inactive)	96.8 µM (inactive)	
CCOC(=O)c1c(-c2ccc(OC)c(O)c2)c(C#N)c(=S)n(C2OC(CO)C(O)C(O)C2O)c1-c1ccccc1 (stereo not drawn)	> 100 µM (inactive)	> 100 µM (inactive)	1.6 µM (inactive)	> 100 µM (inactive)		> 100 µM (inactive)	> 100 µM (inactive)		> 100 µM (inactive)		> 100 µM (inactive)		> 100 µM (inactive)	> 100 µM (inactive)		> 100 µM (inactive)	> 100 µM (inactive)		> 100 µM (inactive)	> 100 µM (inactive)
CC1NOC(NS(=O)(=O)c2ccc(/N=N/c3c(O)c(C(=O)O)cc4ccccc34)cc2)C1C (stereo not drawn)	> 100 µM (inactive)		> 100 µM (inactive)	> 100 µM (inactive)	> 100 µM (inactive)	> 100 µM (inactive)	> 100 µM (inactive)	> 100 µM (inactive)	> 100 µM (inactive)	> 100 µM (inactive)	> 100 µM (inactive)	> 100 µM (inactive)	> 100 µM (inactive)	> 100 µM (inactive)	> 100 µM (inactive)	> 100 µM (inactive)	55 µM (inactive)	> 100 µM (inactive)	> 100 µM (inactive)	
O=C1OC(C(O)CO)C(C(O)CO)OC1=O (stereo not drawn)	> 10 µM (inactive)		> 10 µM (inactive)	> 10 µM (inactive)		> 10 µM (inactive)	> 10 µM (inactive)	> 10 µM (inactive)	> 10 µM (inactive)	> 10 µM (inactive)	> 10 µM (inactive)	> 10 µM (inactive)	> 10 µM (inactive)	> 10 µM (inactive)	> 10 µM (inactive)	> 10 µM (inactive)	> 10 µM (inactive)	> 10 µM (inactive)	> 10 µM (inactive)	> 10 µM (inactive)
